The test system of assay [1] is BCL-xL/PROTAC/VCB ternary complex (HiBit-BCL-xL, HaloTag-VHL). In words: NanoBRET intracellular ternary complex formation in 293T cells, BCL-xL. Particulars: triplicate wells; for nanoBRET ratio (610/450, background-subtracted), Ave, Bcl-xl: Ave of Read2 and Read3. It counts as cell-based, human. Summed up:
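293T cells were transfected with HiBit-BCL-xL or HiBit-BCL-2 plus HaloTag-VHL and incubated overnight with or without HaloTag NanoBRET 618 ligand in 4% FBS Opti-MEM. Serially diluted compounds were applied for 6 h at 37 °C. mBRET ratio from donor emission (450/50 nm) and acceptor emission (610 nm longpass) after Nano-Glo substrate.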
Background: Bioluminescence resonance energy transfer reports proximity on the nanometre scale.

Assay [2] concerns the target T1, BCL-2/PROTAC/VCB ternary complex (Homo sapiens, UniProt P10415+P40337).
T1 construct: pGEX-6P-1-VHL(54-213) (pDL2200) was constructed through Gibson assembly method; made in house; host or cells: bacterial culture (LB broth, IPTG induction)
In words: AlphaLISA ternary complex formation, cell-free, BCL-2. The format is binding. Particulars: for Alpha (Alpha Endpoint read, Bcl-2 ternary complex formation): raw plate signal, duplicate wells; for AlphaLISA signal, BCL-2/PROTAC/VCB: Fig. 2d raw Alpha reads. How it is done: AlphaLISA assay was used to evaluate the in vitro ternary complex formation between target proteins (BCL-xL or BCL-2), PROTAC and E3 ligase (VCB complex). In each well, 5 nM His-tagged BCL-xL or BCL-2 proteins and 5 nM GST-VCB complex was incubated with varying concentrations of compounds in fourfold serial dilutions, to a final volume of 40 µl in a 96-well PCR plate. After incubation at room temperature for 30 min, 5 µl alpha glutathione-donor beads (Cat. No. 6765300, PerkinElmer) were added to each well (20 µg/ml final concentration) and incubated for another 15 min. Thereafter, 5 µL 6× His-acceptor beads were added to each well (20 µg/ml final concentration) and incubated for an additional 45 min at room temperature. Thereafter, 17 µl of each sample was transferred in adjacent wells of a 384-well proxy plate, and the plate was scanned using the Alpha program on Biotek’s Synergy Neo2 multimode plate reader. The data were expressed as average AlphaLISA signal and plotted against different concentrations of compounds using GraphPad Prism 9 software.
Background: Alpha assays give light when donor and acceptor beads are brought close together.

Several values for one entry are separate records, joined by “and”; a condition that tells them apart may be missing. Equal values may be shown once.

T1 sequence (P10415 1-211 limits assumed): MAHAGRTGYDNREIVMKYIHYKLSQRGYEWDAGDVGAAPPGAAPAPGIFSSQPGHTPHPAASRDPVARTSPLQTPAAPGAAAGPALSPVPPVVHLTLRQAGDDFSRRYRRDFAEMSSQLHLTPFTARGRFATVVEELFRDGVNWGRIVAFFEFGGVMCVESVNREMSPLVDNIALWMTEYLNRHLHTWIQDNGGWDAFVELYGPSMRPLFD
T1 sequence (P40337 54-213 limits assumed): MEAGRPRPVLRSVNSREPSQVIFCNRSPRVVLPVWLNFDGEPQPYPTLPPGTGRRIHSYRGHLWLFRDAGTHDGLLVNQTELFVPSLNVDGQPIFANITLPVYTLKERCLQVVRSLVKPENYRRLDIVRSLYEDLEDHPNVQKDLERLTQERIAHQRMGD
T1 sequence (Q15369 17-112 partner limits assumed): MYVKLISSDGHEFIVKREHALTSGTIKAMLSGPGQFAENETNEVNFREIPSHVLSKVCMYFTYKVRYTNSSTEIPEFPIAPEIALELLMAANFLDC
T1 sequence (Q15370 whole entry partner): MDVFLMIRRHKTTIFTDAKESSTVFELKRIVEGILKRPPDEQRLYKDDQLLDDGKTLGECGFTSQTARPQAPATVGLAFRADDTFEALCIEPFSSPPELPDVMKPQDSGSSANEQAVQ

`Cc1ncsc1-c1ccc([C@H](C)NC(=O)[C@@H]2C[C@@H](O)CN2C(=O)[C@@H](NC(=O)CCCCCCC(=O)N2CCN(C[C@@]3(C)CCC(c4ccc(Cl)cc4)=C(CN4CCN(c5ccc(C(=O)NS(=O)(=O)c6ccc(N[C@H](CCN7CCOCC7)CSc7ccccc7)c(S(=O)(=O)C(F)(F)F)c6)cc5)CC4)C3)CC2)C(C)(C)C)cc1` [753a]: the “nanoBRET ratio (610/450, background-subtracted), Ave, Bcl-xl” value was 6.588 and 5.267 and 6.114 in assay [1] (0.004 uM); 7.772 and 5.901 and 5.719 in assay [1] (0.012 uM); 7.6 and 7.528 and 6.707 in assay [1] (0.111 uM); 7.771 and 7.613 and 7.591 in assay [1] (0.333 uM); 6.777 and 6.861 and 6.637 in assay [1] (1 uM); 7.07 and 7.184 and 6.888 in assay [1] (3 uM). The “nanoBRET ratio (610/450, background-subtracted), Read2, Bcl-xl” value is 6.808 and 5.756 and 5.973 in assay [1] (0.004 uM); 8.034 and 6.13 and 5.719 in assay [1] (0.012 uM); 8.597 and 7.785 and 7.564 in assay [1] (0.111 uM); 8.649 and 8.045 and 7.293 in assay [1] (0.333 uM); 6.613 and 6.856 and 7.09 in assay [1] (1 uM); 7.24 and 8.026 and 7.182 in assay [1] (3 uM). The “nanoBRET ratio (610/450, background-subtracted), Read3, Bcl-xl” value was 6.368 and 4.777 and 6.254 in assay [1] (0.004 uM); 7.511 and 5.673 and 5.719 in assay [1] (0.012 uM); 6.603 and 7.27 and 5.849 in assay [1] (0.111 uM); 6.893 and 7.18 and 7.888 in assay [1] (0.333 uM); 6.94 and 6.866 and 6.184 in assay [1] (1 uM); 6.9 and 6.341 and 6.5933 in assay [1] (3 uM). In addition, the “Alpha (Alpha Endpoint read, Bcl-2 ternary complex formation)” value in assay [2] (Conc. 0.0762939 nM) was 50534 and 53139; in assay [2] (Conc. 0.305176 nM) it was 145058 and 154080; in assay [2] (Conc. 1.2207 nM), 205372 and 217088; in assay [2] (Conc. 4.88281 nM), 773602 and 780039; in assay [2] (Conc. 19.5312 nM), 1990534 and 2015902; in assay [2] (Conc. 78.125 nM), 2343633 and 2509831. The “Alpha (Alpha Endpoint read, Bcl-2 ternary complex formation)” value in assay [2] (Conc. 312.5 nM) was 1692897 and 1765154; in assay [2] (Conc. 1250 nM) it was 434318 and 434578; in assay [2] (Conc. 5000 nM), 40362 and 44856; in assay [2] (Conc. 20000 nM), 14264 and 11638.

Turning to `CC1(C)CCC(c2ccc(Cl)cc2)=C(CN2CCN(c3ccc(C(=O)NS(=O)(=O)c4ccc(N[C@H](CCN5CCOCC5)CSc5ccccc5)c(S(=O)(=O)C(F)(F)F)c4)cc3)CC2)C1` [ABT263, navitoclax], the “Alpha (Alpha Endpoint read, Bcl-2 ternary complex formation)” value in assay [2] (Conc. 0.0762939 nM) was 13075 and 14039; in assay [2] (Conc. 0.305176 nM) it was 25282 and 13828; in assay [2] (Conc. 1.2207 nM), 26631 and 14952; in assay [2] (Conc. 4.88281 nM) it was 23864 and 13192; in assay [2] (Conc. 78.125 nM), 25354 and 12957; in assay [2] (Conc. 1250 nM) it was 25045 and 14016. For the same compound, the “Alpha (Alpha Endpoint read, Bcl-2 ternary complex formation)” value in assay [2] (Conc. 20000 nM) was 20320 and 11437.

For `Cc1ncsc1-c1ccc([C@H](C)NC(=O)[C@@H]2C[C@@H](O)CN2C(=O)[C@@H](NC(=O)CCCCCC(=O)N2CCN(CC[C@H](CSc3ccccc3)Nc3ccc(S(=O)(=O)NC(=O)c4ccc(N5CCN(CC6=C(c7ccc(Cl)cc7)CCC(C)(C)C6)CC5)cc4)cc3S(=O)(=O)C(F)(F)F)CC2)C(C)(C)C)cc1` [DT2216], the “Alpha (Alpha Endpoint read, Bcl-2 ternary complex formation)” value in assay [2] (Conc. 0.0762939 nM) is 20813 and 18426; in assay [2] (Conc. 0.305176 nM), 25167 and 44180; in assay [2] (Conc. 1.2207 nM), 134706 and 124477; in assay [2] (Conc. 4.88281 nM) it was 167974 and 147424; in assay [2] (Conc. 19.5312 nM), 637139 and 671757; in assay [2] (Conc. 78.125 nM) it was 1569627 and 1815622. The “Alpha (Alpha Endpoint read, Bcl-2 ternary complex formation)” value in assay [2] (Conc. 312.5 nM) is 1851330 and 1734079; in assay [2] (Conc. 1250 nM) it was 970107 and 1023464; in assay [2] (Conc. 5000 nM), 185911 and 171854; in assay [2] (Conc. 20000 nM) it was 15128 and 13041. Moreover, the “AlphaLISA signal, BCL-2/PROTAC/VCB” value in assay [2] (compound 0.191 nM) was 15777 and 15419; in assay [2] (compound 0.763 nM) it was 15170 and 18328; in assay [2] (compound 3.052 nM), 22062 and 18311; in assay [2] (compound 12.207 nM), 69812 and 70261; in assay [2] (compound 48.828 nM) it was 478226 and 503248; in assay [2] (compound 195.31 nM), 862665 and 765838. The “AlphaLISA signal, BCL-2/PROTAC/VCB” value in assay [2] (compound 781.25 nM) was 770133 and 699715; in assay [2] (compound 3125 nM), 392514 and 467832; in assay [2] (compound 12500 nM), 47038 and 50161; in assay [2] (compound 50000 nM) it was 7988 and 8322; in assay [2] (compound 200000 nM, 2 technical replicates), 7003 and 7472.

These data come from paper PMC8617031, “Development of a BCL-xL and BCL-2 dual degrader with improved anti-leukemic activity,” (Nature Communications, 2021).
